Data reported in patent publication EP0265400A2, “Topical radioprotective gel for mucosa” (priority 1986, dated 1988).
Several values for one entry are separate records, joined by “and”; a condition that tells them apart may be missing. Equal values may be shown once. Entries after “also recorded” stand apart in the source; their conditions may differ. Values belong to the molecule of their own block, whether it stands above or below them. Positions of bridges follow the written chain, without caps; N, C: chain ends. Residues, ends and D or L forms follow the SMILES beside them.

Experiments:
[1] = test system: Irradiation-induced lesions in the mucosa; assay: Radioprotective effect of rectally applied gel on irradiated rectal mucosa: histological grading and body weight; type: in vivo, Wistar rats; details: for Body weight change / Change of glandular structure / Fibrosis / Ulceration - abscessa development in crypts / Sum of parameters: one value per rat; for Sum of parameters: histological grading
Description: For studies of the radioprotective effect of TGLVP Wistar rats (body weight 187-394 g) were used and treated in pairs at the same time. In each pair, one rat was treated rectally with TGLVP, while the other rat, the control rat, was given CMC solution rectally. The gels were applied in the same manner as described above. For anaesthesia, nembutal was given intraperitoneally. The rats were irradiated with 240 kV X-rays (0.2 Cu filtration), using AP and PA fields in size 4 × 3 cm. This gave a uniform dose in the lower part of the abdomen corresponding to the position of the rectum. 10 Gy were given on day 1, and 10 Gy on day 4. The rats were killed 14 days after the treatment, and the rectum was removed for histological analysis. The rats were weighed before treatment and when they were killed. 10 rats were treated with 1600 µg TGLVP 15 min before irradiation (Tables IV and V) 5 rats were treated with 800 µg TGLVP 15 min before irradiation (Table V) 10 rats were given 1600 µg TGLVP 30 min before treatment (Table III) 5 rats were given 3200 µg TGLVP 15 min before treatment (Table I) 5 rats were given 3200 µg TGLVP 30 min before treatment (Table II)
Histological grading (sum of parameters) was performed in accordance with an evaluation system in which 0 is the normal structure and 6 indicates maximum change. Irradiation-induced lesions in the mucosa were determined arbitrarily by means of the following parameters: • 1: The extent of fibrosis in the mucosa and submucosa. • 2: The change of glandular structure in the mucosa. • 3: Ulcerations in the mucosa or abscesses in mucosal crypts.

[2] = Studies of systemic circulation (dose titration) after rectal application of the gel: arterial pressure and pulse rate; type: in vivo, Wistar rats
Description: The concentration of vasoconstrictive substance in the radioprotective gels according to the invention was determined according to the desire to provide a local vasoconstrictive effect (with subsequent hypoxia) in the mucosa, but without general secondary effect, such as blood pressure increase and bradycardia. To achieve this, dose titration studies of the different vasoconstrictive substances were carried out, i.e. the dose just below the threshold of general circulatory response was defined. Due to interaction (electrostatic binding) between the active substance and the different thickening agents, the dose for a specific vasoconstrictive substance varied depending upon the thickening agent employed.
For studies of systematic circulation, Wistar rats (body weight 177-296 g) were used. TGLVP was administered rectally by means of a Nelaton-Foley catheter inserted through the anus until the balloon was 5 cm away from the anus. The balloon was then filled to ensure that the catheter stayed in position and to prevent TGLVP from reaching the upper parts of the bowel. TGLVP was dissolved in a 1% by weight aqueous solution of sodium carboxymethyl cellulose (CMC) and was in contact with all parts of the mucosa during the test. The volume applied amounted to half a milliliter. Three dose levels of TGLVP were tested, i.e. 800 µg, 1600 µg and 3200 µg. For each dose level, use was made of five rats and a corresponding number of controls which were given CMC solution only. For anaesthesia, nembutal was used intraperitoneally. Mean values for arterial pressure and puls rate were recorded by means of a catheter in the aorta via the femoral artery.
Dose titration was carried out in a similar manner on AVP, LVP, TGLVP with other thickening agents, Angiotensin II and norepinephrine.

[3] = TGLVP 3200 µg/g in 1 weight% carboxymethyl cellulose, dose 1600 µg, 30 min before irradiation
[4] = TGLVP 3200 µg/g in 1 weight% carboxymethyl cellulose, dose 1600 µg, 30 min before irradiation, grade 0-6
[5] = TGLVP 6400 µg/g in 1 weight% carboxymethyl cellulose, dose 3200 µg, 15 min before irradiation, grade 0-6
[6] = TGLVP 6400 µg/g in 1 weight% carboxymethyl cellulose, dose 3200 µg, 30 min before irradiation
[7] = TGLVP 6400 µg/g in 1 weight% carboxymethyl cellulose, dose 3200 µg, 30 min before irradiation, grade 0-6

Molecule: NC[C@H](O)c1ccc(O)c(O)c1 [norepinephrine]
function of the gel in radioprotective experiments ([1]; 2 mg per g of 0.6% by weight hydroxyethyl cellulose in sterile deionised water): found to function as intended
cases with radioprotection to the mucosa, as compared with the controls ([1]; dose of 1 mg, irradiation 15 min after administration, Table IX): 5 out of 6

Molecule: Angiotensin II
function of the gel in radioprotective experiments ([1]; 250 µg per g of 0.6% by weight hydroxyethyl cellulose in sterile deionised water): found to function as intended
cases with radioprotection to the mucosa, as compared with the controls ([1]; dose of 125 µg, irradiation 15 min after administration, Table VIII): 5 out of 6

Molecule: lysine-vasopressin [LVP]
function of the gel in radioprotective experiments ([1]; 32 µg per g of 1.2% by weight hydroxyethyl cellulose in sterile deionised water): found to function as intended
radioprotection to the mucosa ([1]; dose of 16 µg, irradiation 15 min after administration, Table VII): gave radioprotection to the mucosa
changes in systemic circulation ([2]; 4 µg in 1.2% by weight hydroxyethyl cellulose solution): without significant changes in systemic circulation
changes in systemic circulation ([2]; 8 µg in 1.2% by weight hydroxyethyl cellulose solution): without significant changes in systemic circulation
change in blood pressure ([2]; 10 µg in 0.2% by weight carboxypolymethylene solution, pulse rate not measured): without any significant change in blood pressure
change in blood pressure ([2]; 10 µg in 1% by weight sodiumcarboxymethyl cellulose (CMC) solution, pulse rate not measured): without any change in blood pressure
changes in systemic circulation ([2]; 16 µg in 1.2% by weight hydroxyethyl cellulose solution): without significant changes in systemic circulation; also recorded: caused no significant change in systemic circulation
change in blood pressure ([2]; 20 µg in 0.2% by weight carboxypolymethylene solution, pulse rate not measured): without any significant change in blood pressure
change in blood pressure ([2]; 20 µg in 1% by weight sodiumcarboxymethyl cellulose (CMC) solution, pulse rate not measured): without any change in blood pressure
pulse rate ([2]; 32 µg in 1.2% by weight hydroxyethyl cellulose solution): No decrease in pulse rate was noted
blood pressure ([2]; 32 µg in 1.2% by weight hydroxyethyl cellulose solution, 5, 10, 15, 20, 25, 30, 45, 75 and 90 minutes after application): caused a rise in blood pressure
change in blood pressure ([2]; 40 µg in 0.2% by weight carboxypolymethylene solution, significant at 10, 15, 20, 25, 45 and 60 minutes after application): gave a rise in blood pressure
change in blood pressure ([2]; 40 µg in 1% by weight sodiumcarboxymethyl cellulose (CMC) solution, pulse rate not measured): without any change in blood pressure
change in blood pressure ([2]; 80 µg in 0.2% by weight carboxypolymethylene solution, significant 5-60 minutes after application): gave a rise in blood pressure
change in blood pressure ([2]; 80 µg in 1% by weight sodiumcarboxymethyl cellulose (CMC) solution, 5-45 minutes after application): caused a rise in blood pressure

circulatory changes ([2]; 128 µg in 0.9% by weight hydroxypropyl cellulose solution): without changes
circulatory changes ([2]; 128 µg in 1.2% by weight hydroxyethyl cellulose solution): no circulatory changes
circulatory changes ([2]; 256 µg in 0.9% by weight hydroxypropyl cellulose solution): without changes
pulse rate ([2]; 256 µg in 1.2% by weight hydroxyethyl cellulose solution, at 5 minutes after application): decrease in pulse rate
circulatory changes (pulse) ([2]; 512 µg in 0.9% by weight hydroxypropyl cellulose solution, 15-120 minutes after application): gave a bradycardia
pulse rate ([2]; 512 µg in 1.2% by weight hydroxyethyl cellulose solution, 10-45 minutes after application): bradycardia
Molecule: NCCCC[C@H](NC(=O)[C@@H]1CCCN1C(=O)[C@@H]1CSSC[C@H](NC(=O)CNC(=O)CNC(=O)CN)C(=O)N[C@@H](Cc2ccc(O)cc2)C(=O)N[C@@H](Cc2ccccc2)C(=O)N[C@@H](CCC(N)=O)C(=O)N[C@@H](CC(N)=O)C(=O)N1)C(=O)NCC(N)=O [TGLVP, triglycyl-lysine-vasopressin] (H-GGGCYFQNCPKG-NH2; disulfide 4-9)
function of the gel in radioprotective experiments ([1]; 1600-6400 µg per g of 1% by weight carboxymethyl cellulose in sterile deionised water): found to function as intended
Body weight change [1, 3]: 14 g and 3 g and 18 g and 7 g and 5 g
Change of glandular structure [1, 4]: 2 (4×) and 4
Fibrosis [1, 4]: 4 (4×) and 2
Ulceration - abscessa development in crypts [1, 4]: 0 (3×) and 2 (2×)
Sum of parameters [1, 3]: 6 (4×) and 10
Fibrosis ([1]; TGLVP 6400 µg/g in 1 weight% carboxymethyl cellulose, dose 3200 µg rectally 15 min before irradiation (10 Gy day 1 and day 4), grade 0 normal, 6 maximum change, killed 14 days after treatment): 4 and 2 (4×)
Body weight change ([1]; TGLVP 6400 µg/g in 1 weight% carboxymethyl cellulose, dose 3200 µg, 15 min before irradiation, before treatment vs when killed): 9 g and 4 g and 7 g and 15 g and 12 g
Change of glandular structure [1, 5]: 4 and 2 (2×) and 0 (2×)
Ulceration - abscessa development in crypts [1, 5]: 4 and 2 and 0 (3×)
Sum of parameters ([1]; TGLVP 6400 µg/g in 1 weight% carboxymethyl cellulose, dose 3200 µg, 15 min before irradiation): 12 and 6 and 2 (2×) and 4
Body weight change [1, 6]: 24 g and 7 g and 13 g and -2 g and 38 g
Change of glandular structure [1, 7]: 0 (2×) and 4 and 2 (2×)
Fibrosis [1, 7]: 4
Ulceration - abscessa development in crypts [1, 7]: 0 (2×) and 4 and 2 (2×)
Sum of parameters [1, 6]: 4 and 12 and 6 (2×) and 8
radioprotective effect ([1]; dose of 1600 µg, rats): maximum radioprotective effect
radioprotection to the mucosa as compared with the controls ([1]; dose of 3200, 1600 or 800 µg, irradiation 15 or 30 min after administration, summary of Tables I-V): gave radioprotection to the mucosa
radioprotection: effect of higher dose or longer time ([1]; increase of dose from 1600 µg to 3200 µg, or of time from 15 to 30 min, compared with 1600 µg at 15 min, Tables I-IV): does not seem to give a better result
protection, from body weight values ([1]; increasing the dose from 800 µg to 1600 µg, 15 min before irradiation, Table V): improved protection
blood pressure ([2]; 256 µg in 1.2% by weight hydroxyethyl cellulose solution, at 75 and 90 minutes after application): gave a rise in blood pressure
blood pressure ([2]; 512 µg in 1.2% by weight hydroxyethyl cellulose solution, 30 and 45 minutes after application): gave a rise in blood pressure
systemic circulatory response in the form of blood pressure increase or lower pulse ([2]; 800 µg rectally in 1% by weight sodium carboxymethyl cellulose (CMC)): no systemic circulatory response
systemic circulatory response in the form of blood pressure increase or lower pulse ([2]; 1600 µg rectally in 1% by weight sodium carboxymethyl cellulose (CMC)): no systemic circulatory response; also recorded: without general circulatory responses
systemic circulatory response in the form of blood pressure increase or lower pulse ([2]; 3200 µg rectally in 1% by weight sodium carboxymethyl cellulose (CMC)): caused blood pressure increase in several animals

Molecule: Angiotensin II (DRVYIHPF; Angiotensin-2; UniProt P01019 25-32, looked up)
changes in blood pressure or pulse rate ([2]; doses of 0.1 µg to 500 µg in 0.6% by weight hydroxyethyl cellulose solution, even at the highest dose level, 75 or 140 minutes of follow-up): no significant changes in blood pressure or pulse rate

Molecule: arginine-vasopressin [AVP]
function of the gel in radioprotective experiments ([1]; 10 µg per g of 0.2% by weight carboxypolymethylene in sterile deionised water): found to function as intended
radioprotection to the mucosa as compared with the controls ([1]; dose of 10 µg, irradiation 10 min after administration, Table VI, histological grading only): gave radioprotection to the mucosa
influence on blood pressure ([2]; 25 µg in 0.2% by weight carboxypolymethylene solution, pulse rate not measured): without any significant influence on blood pressure
influence on blood pressure ([2]; 50 µg in 0.2% by weight carboxypolymethylene solution, pulse rate not measured): without any significant influence on blood pressure
